Common to all, as to test: NCI-60 cell line screen, 48 h
Experiment [1] relates to DU-145.
Experiment [2] relates to HCC 2998.
Experiment [3] deals with 786-0.
Experiment [4] concerns NCI-H226.
The subject of experiment [5] is SW-620.
Experiment [6] concerns SF-268.
The subject of experiment [7] is SK-MEL-5.
Experiment [8] deals with OVCAR-5.
Experiment [9] relates to UACC-62.
The subject of experiment [10] is EKVX.
For experiment [11], the system named is SK-OV-3.
The test system of experiment [12] is SR.
Experiment [13] relates to NCI-H522.
Experiment [14] has as its system RPMI-8226.
Experiment [15] relates to HCT-15.
Experiment [16] has as its system SNB-75.
Experiment [17] has as its system PC-3.
Experiment [18] has as its system SN12C.
In experiment [19] the test system is UACC-257.
Experiment [20] concerns MOLT-4.

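The compound was tested at five concentrations on cells cultured in 96-well plates, with a 48-hour exposure period. Here, GI50 denotes the concentration required for 50% inhibition of growth.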 Calls of active or inactive are those of the source. Cut-off read from the data, not from the text of the source: active = GI50 up to about 1.1 µM and inactive = higher.

Consider `Cc1cc(O)c2c(c1)CC(O)C1=C2C(=O)c2c(O)ccc(OC3CC(O)C(OC4CC(OC5CCC(O)C(C)O5)C(O)C(C)O4)C(C)O3)c2C1=O` (stereo not given), for which the GI50 was 1.72 µM (inactive) in experiment [1]; 1.85 µM (inactive) in experiment [2]; 1.42 µM (inactive) in experiment [3]; 1.5 µM (inactive) in experiment [4]; 0.518 µM (active) in experiment [5]; 1.74 µM (inactive) in experiment [6]. In addition, the GI50 in experiment [7] was 1.43 µM (inactive); in experiment [8], 3.81 µM (inactive); in [9], 1.68 µM (inactive); in [10], 1.89 µM (inactive); in [11], 2.33 µM (inactive); in [12], 0.324 µM (active). Besides, the GI50 in experiment [13] is 0.964 µM (active); in experiment [14] it was 0.53 µM (active); in experiment [15] it was 1.96 µM; in [16] it was 2.74 µM (inactive); in experiment [17], 1.71 µM (inactive); in [18], 1.73 µM (inactive). Besides, the GI50 was 1.57 µM (inactive) in experiment [19] and 0.305 µM (active) in experiment [20].
As for `O=C1C=C(Nc2ccc(Br)cc2)c2ccccc2/C1=N/O`, the GI50 is 1.77 µM (inactive) in [1]; 3.84 µM (inactive) in experiment [2]; 9.73 µM (inactive) in experiment [3]; 2.32 µM (inactive) in experiment [4]; 4.32 µM (inactive) in [5]; 5.6 µM (inactive) in experiment [6]. For the same molecule, the GI50 is 0.989 µM (active) in experiment [7]; 5.18 µM (inactive) in experiment [8]; 1.73 µM (inactive) in experiment [9]; 35.5 µM (inactive) in experiment [10]; 12.9 µM (inactive) in experiment [11]; 9.38 µM (inactive) in experiment [12]. Moreover, the GI50 in experiment [13] was 28.1 µM (inactive); in [14], 11.6 µM (inactive); in experiment [15] it was 3.14 µM; in experiment [16], 2.75 µM (inactive); in experiment [17] it was 8.47 µM (inactive); in [18], 10.6 µM (inactive). The GI50 in [19] was 1.58 µM (inactive); in [20], 11.7 µM (inactive).
As to `CCOC(=O)C(NC(=O)c1ccccc1)(N1CCOCC1)C(F)(F)F` (stereo not given), the GI50 in experiment [1], in [2], in experiment [3], in [4], in [5] and in [6] was > 100 µM (inactive) each time. In addition, the GI50 in [7], in [8], in [9], in experiment [10], in experiment [11] and in experiment [12] was > 100 µM (inactive) throughout. The GI50 in [13] is > 100 µM (inactive); in [14], > 100 µM (inactive); in [15] it was over 100 µM; in experiment [16] it was > 100 µM (inactive); in experiment [17] it was > 100 µM (inactive); in experiment [18] it was > 100 µM (inactive). The GI50 in experiment [19] and in experiment [20] was > 100 µM (inactive) each time.
Take `CCN(CC)CCNC(=O)c1cn2c(ccc3sc4ccccc4c(=O)c32)n1`: the GI50 in [1] is 12 µM (inactive); in experiment [2], 10.1 µM (inactive); in [3], 4.1 µM (inactive); in experiment [4], 13.3 µM (inactive); in [5], 6.25 µM (inactive); in experiment [6], 6.93 µM (inactive). Besides, the GI50 in [7] was 7.26 µM (inactive); in experiment [8], 8.57 µM (inactive); in [9] it was 15.1 µM (inactive); in experiment [10] it was 14.6 µM (inactive); in experiment [11], 12.1 µM (inactive); in experiment [12], 1.25 µM (inactive). The GI50 was 9.16 µM (inactive) in [13]; 5.62 µM (inactive) in [14]; 5.21 µM in experiment [15]; 16.3 µM (inactive) in [16]; 10.8 µM (inactive) in [17]; 9.33 µM (inactive) in experiment [18]. The GI50 was 14.3 µM (inactive) in [19] and 0.502 µM (active) in [20].
For `COC(=O)C1C(=O)C(C(=O)OC)C2CCC1N2C` (stereo not given), the GI50 in [1] is 28.8 µM (inactive); in experiment [2] it was > 100 µM (inactive); in [3], 33.7 µM (inactive); in [4], 36.2 µM (inactive); in experiment [5], 36.5 µM (inactive); in experiment [6], 96.6 µM (inactive). Further, the GI50 in experiment [7] was > 100 µM (inactive); in experiment [8], > 100 µM (inactive); in [9] it was 40.3 µM (inactive); in experiment [10], > 100 µM (inactive); in [11] it was 28.4 µM (inactive); in experiment [12], 32.1 µM (inactive). Moreover, the GI50 in experiment [13] is > 100 µM (inactive); in [14] it was 35 µM (inactive); in [15], 1.84 µM; in [16], 35.2 µM (inactive); in experiment [17], 29.4 µM (inactive); in experiment [18], 32.1 µM (inactive). In addition, the GI50 in [19] is 83.4 µM (inactive); in [20] it was 9.08 µM (inactive).
In the case of `Cc1cc(S(=O)(=O)Nc2nc(N)n(-c3ccccn3)n2)c(S)cc1Cl`, the GI50 in experiment [1], in [2], in experiment [3], in [4], in experiment [5] and in [6] was > 100 µM (inactive) each time. Further, the GI50 in [7], in experiment [8], in [9], in experiment [10], in [11] and in experiment [12] was > 100 µM (inactive) throughout. Further, the GI50 is > 100 µM (inactive) in experiment [13]; > 100 µM (inactive) in experiment [14]; over 100 µM in [15]; > 100 µM (inactive) in experiment [16]; > 100 µM (inactive) in experiment [17]; > 100 µM (inactive) in experiment [18]. For the same molecule, the GI50 in [19] and in experiment [20] was > 100 µM (inactive) each time.

(Values after ChEMBL document CHEMBL1201862, “PubChem BioAssay data set” (2004).)
